Measurements taken from the OligoGym collection.
Bases are written 5' to 3'; sugars and linkages follow in the same order, as letters with counts (s phosphorothioate, o phosphodiester; PS: all linkages phosphorothioate). The collection does not say whether C is 5-methylated. l = locked nucleic acid (LNA); d = 2'-deoxy (DNA)

biological target: Tau; test: rat primary cortical neurons, FLIPR, 25 uM ASO

Sequence	calcium oscillation score
TGCCTAATGAGCCACACTTG (sugars l3 d14 l3, PS)	29.9 % of control
TGCTCAGCTAAGACCCTCAG (sugars l3 d14 l3, PS)	29.4 % of control
TGCTCTTAGCATCAGAGGTT (sugars l3 d14 l3, PS)	25.9 % of control
TGCTTACACACCACACA (sugars l2 d12 l3, PS)	80.5 % of control
TGCTTACACACCACACAC (sugars l2 d13 l3, PS)	60.7 % of control
TGCTTTTCCCAATTATT (sugars l3 d11 l3, PS)	69.5 % of control
TGGAAAGATGAAATTTGCTC (sugars l3 d14 l3, PS)	5.81 % of control
TGGACCACCTTACCAC (sugars l3 d10 l3, PS)	48.1 % of control
TGGACGTTGCTAAGAT (sugars l3 d10 l3, PS)	0 % of control
TGGAGCCGATCTTGGACTTG (sugars l3 d14 l3, PS)	0 % of control
TGGATATAGTTAAGGC (sugars l2 d11 l3, PS)	95.2 % of control
TGGATATAGTTAAGGC (sugars l2 d12 l2, PS)	115 % of control
TGGATATAGTTAAGGC (sugars l3 d9 l4, PS)	106 % of control
TGGATATAGTTAAGGC (sugars l3 d10 l3, PS)	90.5 % of control
TGGATATAGTTAAGGC (sugars l4 d8 l4, PS)	117 % of control
TGGATATAGTTAAGGC (sugars l4 d9 l3, PS)	107 % of control
TGGATCAGAGGGTCTG (sugars l3 d10 l3, PS)	7.41 % of control
TGGATGTTGCCTAATG (sugars l3 d10 l3, PS)	0 % of control
TGGATGTTGCCTAATGAGCC (sugars l3 d14 l3, PS)	0 % of control
TGGCCATCTTATGCTGACCA (sugars l3 d14 l3, PS)	29.4 % of control
TGGCGACTTGTACACG (sugars l3 d10 l3, PS)	70.6 % of control
TGGCGGTGACTGCGA (sugars l3 d9 l3, PS)	107 % of control

Sequence	calcium oscillation score
TGGCGTTCTCGCGG (sugars l3 d8 l3, PS)	93.9 % of control
TGGCTTTGGCGTTCTC (sugars l3 d10 l3, PS)	28.7 % of control
TGGGTGATATTGTCCA (sugars l3 d10 l3, PS)	92.6 % of control
TGGGTGATATTGTCCAGGGA (sugars l3 d14 l3, PS)	0 % of control
TGGTCAAGGCTTTGGG (sugars l3 d10 l3, PS)	0 % of control
TGGTTAGCCCTAAAGT (sugars l3 d10 l3, PS)	77 % of control
TGGTTAGCCCTAAAGTCCCA (sugars l3 d14 l3, PS)	74.5 % of control
TGGTTTATGATGGATGTTGC (sugars l3 d14 l3, PS)	0 % of control
TGGTTTGTAGACTATTTGCA (sugars l3 d14 l3, PS)	0 % of control
TGTAATTTTCCCTACAT (sugars l3 d11 l3, PS)	91.3 % of control
TGTACACGATCTCCGC (sugars l3 d10 l3, PS)	145 % of control
TGTAGACTATTTGC (sugars l3 d8 l3, PS)	30.9 % of control
TGTAGACTATTTGCAC (sugars l3 d10 l3, PS)	93.3 % of control
TGTAGACTATTTGCACACTG (sugars l3 d14 l3, PS)	7.41 % of control
TGTCATCGCTTCCAGT (sugars l3 d10 l3, PS)	88 % of control
TGTCCAAACTTTTACT (sugars l4 d8 l4, PS)	60.8 % of control
TGTCCAAACTTTTACTC (sugars l4 d10 l3, PS)	65.3 % of control
TGTCCAGGGACCCAATCTTC (sugars l3 d14 l3, PS)	39.9 % of control
TGTCCTCACTTTACACAT (sugars l4 d12 l2, PS)	39.8 % of control
TGTCGATGCTGCCG (sugars l3 d8 l3, PS)	52.2 % of control
TGTCGATGCTGCCGGT (sugars l3 d10 l3, PS)	34.5 % of control
TGTGATGCAGGAGTT (sugars l3 d9 l3, PS)	70.5 % of control

Sequence	calcium oscillation score
TGTGATGCAGGAGTTG (sugars l3 d10 l3, PS)	28.7 % of control
TGTTGCCTAATGAGCC (sugars l3 d10 l3, PS)	172 % of control
TGTTGCCTAATGAGCCACAC (sugars l3 d14 l3, PS)	54.2 % of control
TGTTTGATATTATCCT (sugars l3 d10 l3, PS)	104 % of control
TTAACCAATTAACCGAACTG (sugars l3 d14 l3, PS)	122 % of control
TTAACCAGCTAGTGGTGCCA (sugars l3 d14 l3, PS)	0 % of control
TTAACCCTTGATCATATTTG (sugars l3 d14 l3, PS)	14.3 % of control
TTAACCGAACTGCGAG (sugars l3 d10 l3, PS)	46.1 % of control
TTAACTCAAATCAATTCTCA (sugars l4 d12 l4, PS)	62 % of control
TTAACTCATCAACACCT (sugars l4 d9 l4, PS)	86.6 % of control
TTAACTCATCAACACCTT (sugars l3 d11 l4, PS)	114 % of control
TTAACTCATCAACACCTTT (sugars l3 d12 l4, PS)	84 % of control
TTAACTCATCAACACCTTTT (sugars l4 d13 l3, PS)	59 % of control
TTAAGTGATTAACCAATTAA (sugars l3 d14 l3, PS)	40.1 % of control
TTAATTATCTGCACCTT (sugars l3 d10 l4, PS)	33.9 % of control
TTAATTATTAAATCTTCTCT (sugars l4 d12 l4, PS)	60.1 % of control
TTAATTCATAAATGACTATA (sugars l3 d14 l3, PS)	58.4 % of control
TTAATTCATTTAATTCTCTT (sugars l4 d12 l4, PS)	86.1 % of control
TTAATTTCACCCTC (sugars l3 d8 l3, PS)	44.1 % of control
TTAATTTCACCCTCAG (sugars l3 d10 l3, PS)	41.7 % of control
TTACAAAGTCCACTTTC (sugars l4 d9 l4, PS)	69 % of control
TTACAAGCATTTCAAG (sugars l3 d10 l3, PS)	36.8 % of control

Sequence	calcium oscillation score
TTACACCACACTGTCG (sugars l3 d10 l3, PS)	32.1 % of control
TTACACCATCCAAGTC (sugars l4 d9 l3, PS)	101 % of control
TTACACCATCCAAGTCA (sugars l4 d11 l2, PS)	75.5 % of control
TTACACCATCCAAGTCAATG (sugars l3 d14 l3, PS)	24.2 % of control
TTACACCCAAACCTAAA (sugars l4 d9 l4, PS)	92.3 % of control
TTACCAATTATCTTTAAATT (sugars l4 d12 l4, PS)	61.9 % of control
TTACCATCCTATCTTCT (sugars l2 d11 l4, PS)	72.7 % of control
TTACCATCCTATCTTCTA (sugars l2 d13 l3, PS)	90.3 % of control
TTACCCATCTTAATTCATTT (sugars l4 d14 l2, PS)	96.1 % of control
TTACCCTTAAATATGC (sugars l4 d8 l4, PS)	73.3 % of control
TTACTGATCATAATCCT (sugars l4 d10 l3, PS)	67.3 % of control
TTACTTTCTACTCAATTCCA (sugars l3 d15 l2, PS)	60.6 % of control
TTAGACCACATTTCCAT (sugars l3 d11 l3, PS)	96 % of control
TTAGACTCCTTCTTTAGGCT (sugars l3 d14 l3, PS)	26.2 % of control
TTAGCAGAGGAACGTG (sugars l3 d10 l3, PS)	25.9 % of control
TTAGCATCAGAGGTTT (sugars l3 d10 l3, PS)	23.3 % of control
TTAGCCCTAAAGTCCC (sugars l3 d10 l3, PS)	28.6 % of control
TTAGCCCTAAAGTCCCAGGT (sugars l3 d14 l3, PS)	86.3 % of control
TTATACAGTTGGCCCTACCA (sugars l3 d14 l3, PS)	40.5 % of control
TTATTAATTATCTGCA (sugars l3 d10 l3, PS)	58.7 % of control
TTATTAATTCATAAATGACT (sugars l3 d14 l3, PS)	42.3 % of control
TTATTCTTTTTTTTTCCACA (sugars l2 d14 l4, PS)	30.3 % of control

Sequence	calcium oscillation score
TTATTTACACTGTCCTT (sugars l3 d10 l4, PS)	54.1 % of control
TTATTTATTCTTTTTATTA (sugars l4 d11 l4, PS)	45.2 % of control
TTATTTATTCTTTTTATTAT (sugars l4 d12 l4, PS)	66.3 % of control
TTATTTCCAAATTCACTTTT (sugars l1 d17 l2, PS)	166 % of control
TTATTTCCAAATTCACTTTT (sugars l2 d2 l2 d10 l4, PS)	123 % of control
TTATTTCCAAATTCACTTTT (sugars l2 d16 l2, PS)	182 % of control
TTATTTCCAAATTCACTTTT (sugars l3 d14 l3, PS)	≥ 200 % of control
TTATTTCCAAATTCACTTTT (sugars l4 d11 l2 d1 l2, PS)	104 % of control
TTATTTCCAAATTCACTTTT (sugars l4 d11 l5, PS)	124 % of control
TTATTTCCAAATTCACTTTT (sugars l5 d10 l5, PS)	≥ 200 % of control
TTATTTCCAAATTCACTTTT (sugars l5 d11 l4, PS)	119 % of control
TTATTTCCAAATTCACTTTT (sugars ldlllddddddddddlldll, PS)	70.3 % of control
TTATTTCCAAATTCACTTTT (sugars llddldldddddddddllll, PS)	118 % of control
TTATTTCCAAATTCACTTTT (sugars llddlldddddddddldlll, PS)	123 % of control
TTATTTCCAAATTCACTTTT (sugars llddlldddddddddlldll, PS)	88.8 % of control
TTATTTCCAAATTCACTTTT (sugars lldlddldddddddddllll, PS)	131 % of control
TTATTTCCAAATTCACTTTT (sugars lldldlddddddddddllll, PS)	88.8 % of control
TTATTTCCAAATTCACTTTT (sugars lldldldddddddddldlll, PS)	106 % of control
TTATTTCCAAATTCACTTTT (sugars lldldldddddddddlldll, PS)	110 % of control
